Common to all, as to assay type: cell-based
Test [1] deals with T1, α-1A adrenoceptor (rat vas deferens) (Rattus norvegicus, UniProt P43140).
T1 construct: PE-induced contraction of rat vas deferens; from tissue; host or cells: rat vas deferens
T1 sequence (P43140 1-466): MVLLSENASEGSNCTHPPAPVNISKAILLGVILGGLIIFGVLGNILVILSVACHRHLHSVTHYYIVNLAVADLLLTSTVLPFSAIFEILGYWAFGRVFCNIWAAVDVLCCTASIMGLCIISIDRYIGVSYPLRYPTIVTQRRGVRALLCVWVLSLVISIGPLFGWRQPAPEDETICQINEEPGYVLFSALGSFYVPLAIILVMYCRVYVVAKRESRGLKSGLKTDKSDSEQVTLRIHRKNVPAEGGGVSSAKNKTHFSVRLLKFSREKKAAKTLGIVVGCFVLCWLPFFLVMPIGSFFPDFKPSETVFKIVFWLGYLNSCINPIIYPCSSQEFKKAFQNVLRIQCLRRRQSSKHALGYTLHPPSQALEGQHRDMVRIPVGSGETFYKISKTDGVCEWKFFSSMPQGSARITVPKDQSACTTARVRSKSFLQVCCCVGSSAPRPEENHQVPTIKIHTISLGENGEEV
In words: Functional antagonism: phenylephrine (PE)-induced contraction of rat vas deferens. Particulars: vs phenylephrine; Schild plot; read-out: pA2 Rat Vas Deferens [α-1A] (converted). An excerpt:
(§1) Functional assays indicative of pharmacologically defined α-1 adrenoceptors were used to further characterize compounds. Inhibition of phenylephrine (PE)-induced contraction of canine prostate smooth muscle can be correlated with α-1A adrenoceptor activation. […] For each of these models, agonist dose response curves were repeated against increasing concentrations of test agent to derive a Schild plot [log ([…]) against log (molarity of test agent)] to determine the pA2.

Test [2] concerns the target T2, α-1A adrenoceptor (dog prostate) (Canis lupus, UniProt A0A8I3NK63).
T2 sequence (A0A8I3NK63 1-466): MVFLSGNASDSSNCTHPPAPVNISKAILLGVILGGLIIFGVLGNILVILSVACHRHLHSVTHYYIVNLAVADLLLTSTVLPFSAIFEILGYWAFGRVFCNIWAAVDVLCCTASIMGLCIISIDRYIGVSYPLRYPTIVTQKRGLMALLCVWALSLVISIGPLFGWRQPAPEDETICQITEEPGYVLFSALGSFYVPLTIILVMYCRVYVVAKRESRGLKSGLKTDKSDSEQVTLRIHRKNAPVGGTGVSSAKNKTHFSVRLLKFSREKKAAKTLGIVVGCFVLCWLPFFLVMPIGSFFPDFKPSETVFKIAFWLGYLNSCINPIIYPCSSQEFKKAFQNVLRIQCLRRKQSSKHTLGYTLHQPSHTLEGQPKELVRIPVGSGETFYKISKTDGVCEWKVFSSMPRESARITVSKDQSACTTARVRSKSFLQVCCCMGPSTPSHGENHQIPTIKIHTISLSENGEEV
In words: Functional antagonism: phenylephrine (PE)-induced contraction of canine prostate strips. The following applies: Table 2a; vs phenylephrine; Schild plot. The gist of the method:
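Canine prostate smooth-muscle strips in vitro, contracted by phenylephrine. Agonist dose–response curves repeated at rising test-agent concentrations; pA2 derived by Schild plot […].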

Test [3] concerns the target T3, α-1B adrenoceptor (rat spleen) (Rattus norvegicus, UniProt P15823).
T3 construct: PE-induced contraction of rat spleen; from tissue; host or cells: rat spleen
T3 sequence (P15823 1-515): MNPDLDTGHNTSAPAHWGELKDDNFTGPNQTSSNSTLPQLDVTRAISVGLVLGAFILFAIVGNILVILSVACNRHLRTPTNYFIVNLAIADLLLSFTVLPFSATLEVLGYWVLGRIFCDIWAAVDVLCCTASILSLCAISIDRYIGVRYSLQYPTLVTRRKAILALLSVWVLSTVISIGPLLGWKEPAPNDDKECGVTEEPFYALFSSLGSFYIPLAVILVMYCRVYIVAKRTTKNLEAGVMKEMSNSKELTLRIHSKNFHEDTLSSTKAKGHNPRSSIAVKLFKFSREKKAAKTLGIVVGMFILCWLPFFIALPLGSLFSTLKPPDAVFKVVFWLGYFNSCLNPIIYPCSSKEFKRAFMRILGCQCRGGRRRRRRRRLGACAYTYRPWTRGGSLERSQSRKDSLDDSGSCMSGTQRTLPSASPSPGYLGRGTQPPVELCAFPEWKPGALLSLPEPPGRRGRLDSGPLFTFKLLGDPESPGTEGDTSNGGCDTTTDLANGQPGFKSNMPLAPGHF
Briefly: Functional antagonism: phenylephrine (PE)-induced contraction of rat spleen. Particulars: vs phenylephrine; Schild plot; read-out: pA2 Rat Spleen [α-1B] (converted).
Text: as §1

Structures can show the parent of a compound that is named as a salt.

`COc1cccc2c1CC[C@H]1CN(CCn3c(=O)[nH]c4c(sc5ccc(C#N)nc54)c3=O)C[C@@H]21` [Example 108, dihydrochloride]: the Kb in test [1] was 3.39 nM; in test [3], 11.2 nM. Also, the “pA2 Dog Prostate [α-1A]” value in test [2] is recorded as 9.03.

With `COc1cccc2c1CC[C@H]1CN(CCn3c(=O)[nH]c4c(sc5cccc(C)c54)c3=O)C[C@@H]21` [Example 69, 3-[2-((3aR,9bR)-cis-6-Methoxy-2,3,3a,4,5,9b-hexahydro-[1H]-benz[e]isoindol-1-yl)ethyl]-[1]-9-methyl-benzothieno[3,2-d]pyrimidine-2,4(1H,3H)-dione hydrochloride], the figures for the Kb in test [1] and in test [3] were 2.51 nM and 69.2 nM, respectively. Also, in test [2], the “pA2 Dog Prostate [α-1A]” value is listed as 8.25.

As for `COc1cccc2c1CC[C@H]1CN(CCn3c(=O)[nH]c4c(oc5nccnc54)c3=O)C[C@@H]21` [Example 87, hydrochloride], the figures for the Kb in test [1] and in test [3] were 18.2 nM and 87.1 nM, respectively. The “pA2 Dog Prostate [α-1A]” value in test [2] came to 8.67.

As to `COc1cccc2c1CC[C@H]1CN(CCn3c(=O)[nH]c4c([nH]c5ccccc54)c3=O)C[C@@H]21` [Example 26, 3-[2-((3aR,9bR)-cis-6-Methoxy-2,3,3a,4,5,9b-hexahydro-[1 H]-benz[e]isoindol-1-yl)ethyl]-1H-pyrimido[5.4-b]indole-2,4(1H,3H)-dione hydrochloride], the Kb in test [1] is 2.75 nM; in test [3] it was 7.41 nM. The “pA2 Dog Prostate [α-1A]” value in test [2] is 8.63.

Take `COc1cccc2c1CC[C@@H]1CN(CCn3c(=O)[nH]c4c(sc5ccccc54)c3=O)C[C@H]21` [Example 8, 3-[2-((3aS,9bS)-cis-6-Methoxy-2,3,3a,4,5,9b-hexahydro-[1H]-benz[e]isoindol-1-yl)ethyl][1]benzothieno[3,2]pyrimidine-2,4(1H,3H)-dione hydrochloride]: the Kb was 17.4 nM in test [1] and 55 nM in test [3]. In addition, the “pA2 Dog Prostate [α-1A]” value in test [2] came out at 7.63.

Regarding `COc1cccc2c1[C@@H]1CN(CCn3c(=O)[nH]c4c(sc5ccccc54)c3=O)C[C@@H]1CC2` [Example 16, hydrochloride], the Kb was 10.5 nM in test [1] and 56.2 nM in test [3]. Also, the “pA2 Dog Prostate [α-1A]” value in test [2] is listed as 8.54.

For the compound `COCCOCCn1c(=O)n(CCN2C[C@@H]3CCc4c(OC)cccc4[C@@H]3C2)c(=O)c2sc3nccnc3c21` [Example 102, hydrochloride], the Kb in test [1] was 3.63 nM; in test [3] it was 17.4 nM. In addition, in test [2], the “pA2 Dog Prostate [α-1A]” value came out at 8.96.

`COc1cccc2c1CC[C@H]1CN(CCn3c(=O)[nH]c4c(sc5ccc(C(=O)N6CCOCC6)cc54)c3=O)C[C@@H]21` [Example 58, hydrochloride]: the values for the Kb in test [1] and in test [3] were 4.37 nM and 36.3 nM, respectively. The “pA2 Dog Prostate [α-1A]” value in test [2] amounted to 9.09.

In the case of `COc1cccc2c1CC[C@H]1CN(CCn3c(=O)[nH]c4c(sc5nc(Cl)cnc54)c3=O)C[C@@H]21` [Example 88, 3-[2-(cis-(3aR,9bR)-6-Methoxy-2,3,3a,4,5,9b-hexahydro-[1H]-benz[e]isoindol-1-yl)ethyl]-7-chloro-pyrazino[2',3':4,5]thieno[3,2-d]pyrimidine-2,4(1H,3H)-dione hydrochloride], the Kb in test [1] is 1.1 nM; in test [3], 44.7 nM. Also, the “pA2 Dog Prostate [α-1A]” value in test [2] is given as 9.35.

As to `COc1cccc2c1CC[C@H]1CN(CCn3c(=O)[nH]c4c(sc5ncccc54)c3=O)C[C@@H]21` [Example 31, 3,2-((3aR,9bR)-cis-6-Methoxy-2,3,3a,4,5,9b-hexahydro-[1H]-benz[e]isoindol-1-yl))ethyl]-pyrido[3',2':4,5]thieno[3,2-d]pyrimidine-2,4(1H,3H)-dione hydrochloride], the Kb is 2.24 nM in test [1] and 17.4 nM in test [3]. For the same compound, the “pA2 Dog Prostate [α-1A]” value in test [2] came to 8.78.

Turning to `COc1cccc2c1CC[C@H]1CN(CCn3c(=O)[nH]c4c(sc5cnccc54)c3=O)C[C@@H]21` [Example 36, dihydrochloride], the results for the Kb in test [1] and in test [3] were 2.51 nM and 7.94 nM, respectively. For the same compound, the “pA2 Dog Prostate [α-1A]” value in test [2] was determined as 9.71.

For `COc1cccc2c1CC[C@@H]1CN(CCn3c(=O)[nH]c4c(sc5ncccc54)c3=O)C[C@H]21` [Example 75, hydrochloride], the results for the Kb in test [1] and in test [3] were 5.89 nM and 79.4 nM, respectively. The “pA2 Dog Prostate [α-1A]” value in test [2] is recorded as 8.04.

Take `COc1cccc2c1[C@@H]1CN(CCn3c(=O)[nH]c4c(sc5ccccc54)c3=O)C[C@@H]1CC2` (relative stereo) [Example 5, 3-[2-(cis-9-Methoxy-2,3,3a,4,5,9b-hexahydro-[1H]-benz[e]isoindol-1-yl)ethyl]-[1]benzothieno[3,2-d]pyrimidine-2,4(1H,3H)-dione hydrochloride]: the Kb in test [1] is 13.8 nM; in test [3], 148 nM. Besides, in test [2], the “pA2 Dog Prostate [α-1A]” value amounted to 7.79.

Consider `COc1cccc2c1CC[C@H]1CN(CCn3c(=O)[nH]c4c(sc5ncccc54)c3=O)C[C@@H]21` (relative stereo) [Example 23, hydrochloride], for which the results for the Kb in test [1] and in test [3] were 5.13 nM and 151 nM, respectively. Besides, in test [2], the “pA2 Dog Prostate [α-1A]” value is reported as 8.97.

Turning to `COc1cccc2c1CC[C@@H]1CN(CCn3c(=O)[nH]c4c([nH]c5ccccc54)c3=O)C[C@@H]21` (relative stereo) [Example 17, 3-[2-(trans-6-Methoxy-2,3,3a,4,5,9b-hexahydro-[[1H]-benz[e]isoindol-1-yl)ethyl]-1H-pyrimido[5,4-b]indole-2,4(3H,5H)-dione hydrochloride], the Kb is 10.7 nM in test [1] and 63.1 nM in test [3]. For the same compound, the “pA2 Dog Prostate [α-1A]” value in test [2] worked out at 8.29.

On to `COc1cccc2c1CC[C@H]1CN(CCn3c(=O)[nH]c4c(oc5ncccc54)c3=O)C[C@@H]21` [Example 76, hydrochloride], for which the results for the Kb in test [1] and in test [3] were 25.1 nM and 23.4 nM, respectively. Also, the “pA2 Dog Prostate [α-1A]” value in test [2] was determined as 8.74.

Turning to `COc1cccc2c1CC[C@H]1CN(CCn3c(=O)[nH]c4c(ccc5ccccc54)c3=O)C[C@@H]21` (relative stereo) [Example 25, hydrochloride], the Kb was 2.19 nM in test [1] and 174 nM in test [3]. The “pA2 Dog Prostate [α-1A]” value in test [2] came to 8.27.

With `COc1ccc2sc3c(=O)n(CCN4C[C@@H]5CCc6c(OC)cccc6[C@@H]5C4)c(=O)[nH]c3c2n1` [Example 64, dihydrochloride], the Kb in test [1] is 0.794 nM; in test [3], 25.1 nM. In addition, in test [2], the “pA2 Dog Prostate [α-1A]” value is given as 9.63.

On to `COc1cccc2c1CC[C@H]1CN(CCn3c(=O)[nH]c4c(sc5ccccc54)c3=O)C[C@@H]21` [Example 9, hydrochloride], for which the Kb in test [1] is 1.95 nM; in test [3] it was 25.7 nM. Moreover, in test [2], the “pA2 Dog Prostate [α-1A]” value was 8.63.

For the compound `COc1cccc2c1CC[C@H]1CN(CCn3c(=O)[nH]c4c([nH]c5ccccc54)c3=O)C[C@@H]21` (relative stereo) [Example 14, hydrochloride], the Kb in test [1] is 2.69 nM; in test [3] it was 23.4 nM. Moreover, in test [2], the “pA2 Dog Prostate [α-1A]” value was determined as 8.23.

(Values after US5597823A, “Tricyclic substituted hexahydrobenz [e]isoindole alpha-1 adrenergic antagonists” (priority 1995, dated 1997).)
